Test results: ChEMBL document CHEMBL1201862, “PubChem BioAssay data set” (2004)
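Briefly, cells in 96-well plates were exposed to five compound concentrations for 48 h, and endpoints were estimated by linear interpolation. GI50 = concentration required for 50% inhibition of growth.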 Calls of active or inactive are those of the source. Cut-off read from the data, not from the text of the source: active = GI50 up to about 1.1 µM and inactive = higher.

What was measured:
Experiment in all cases: NCI-60 cell line screen, 48 h
UACC-62 = system: UACC-62
RPMI-8226 = system: RPMI-8226
HOP-62 = system: HOP-62
RXF 631 = system: RXF 631
SK-MEL-2 = system: SK-MEL-2
HCC 2998 = system: HCC 2998
786-0 = system: 786-0
XF498 = system: XF498
HCT-116 = system: HCT-116
SK-MEL-28 = system: SK-MEL-28
A549 = system: A549
SNB-78 = system: SNB-78
UO-31 = system: UO-31
SN12C = system: SN12C
CAKI-1 = system: CAKI-1
MOLT-4 = system: MOLT-4
LOX IMVI = system: LOX IMVI
DLD-1 = system: DLD-1
SF-295 = system: SF-295
NCI-H23 = system: NCI-H23
M19-MEL = system: M19-MEL
IGROV-1 = system: IGROV-1
KM-20L2 = system: KM-20L2
HOP-92 = system: HOP-92
SK-MEL-5 = system: SK-MEL-5
SF-268 = system: SF-268
NCI-H226 = system: NCI-H226
EKVX = system: EKVX
SNB-19 = system: SNB-19
HL-60 = system: HL-60
CCRF-CEM = system: CCRF-CEM
HT-29 = system: HT-29
OVCAR-3 = system: OVCAR-3
SW-620 = system: SW-620
KM12 = system: KM12
A498 = system: A498
SR = system: SR
Malme-3M = system: Malme-3M
ACHN = system: ACHN
HCT-15 = system: HCT-15
LXFL 529 = system: LXFL 529
SF-539 = system: SF-539
SNB-75 = system: SNB-75
NCI-H460 = system: NCI-H460
OVCAR-8 = system: OVCAR-8
OVCAR-5 = system: OVCAR-5
DMS-273 = system: DMS-273
M14 = system: M14
TK-10 = system: TK-10
OVCAR-4 = system: OVCAR-4
HOP-18 = system: HOP-18
K562 = system: K562
UACC-257 = system: UACC-257
SK-OV-3 = system: SK-OV-3
U-251 = system: U-251
RXF 393 = system: RXF 393
COLO 205 = system: COLO 205
NCI-H522 = system: NCI-H522
DMS-114 = system: DMS-114

O=C(CCn1[nH]c(=O)c(Cl)c(Cl)c1=O)NOCCCc1ccccc1
GI50 (UACC-62): > 100 µM (inactive)
GI50 (RPMI-8226): > 100 µM (inactive)
GI50 (HOP-62): > 100 µM (inactive)
GI50 (RXF 631): > 100 µM (inactive)
GI50 (SK-MEL-2): > 100 µM (inactive)
GI50 (HCC 2998): > 100 µM (inactive)
GI50 (786-0): > 100 µM (inactive)
GI50 (XF498): > 100 µM (inactive)
GI50 (HCT-116): > 100 µM (inactive)
GI50 (SK-MEL-28): > 100 µM (inactive)
GI50 (A549): > 100 µM (inactive)
GI50 (SNB-78): > 100 µM (inactive)
GI50 (UO-31): > 100 µM (inactive)
GI50 (SN12C): > 100 µM (inactive)
GI50 (CAKI-1): > 100 µM (inactive)
GI50 (MOLT-4): > 100 µM (inactive)
GI50 (LOX IMVI): > 100 µM (inactive)
GI50 (DLD-1): > 100 µM (inactive)
GI50 (SF-295): > 100 µM (inactive)
GI50 (NCI-H23): > 100 µM (inactive)
GI50 (M19-MEL): > 100 µM (inactive)
GI50 (IGROV-1): > 100 µM (inactive)
GI50 (KM-20L2): > 100 µM (inactive)
GI50 (HOP-92): > 100 µM (inactive)
GI50 (SK-MEL-5): > 100 µM (inactive)
GI50 (SF-268): > 100 µM (inactive)
GI50 (NCI-H226): > 100 µM (inactive)
GI50 (EKVX): > 100 µM (inactive)
GI50 (SNB-19): > 100 µM (inactive)
GI50 (HL-60): > 100 µM (inactive)
GI50 (CCRF-CEM): > 100 µM (inactive)
GI50 (HT-29): > 100 µM (inactive)
GI50 (OVCAR-3): > 100 µM (inactive)
GI50 (SW-620): > 100 µM (inactive)
GI50 (KM12): > 100 µM (inactive)
GI50 (A498): > 100 µM (inactive)
GI50 (SR): > 100 µM (inactive)
GI50 (Malme-3M): > 100 µM (inactive)
GI50 (ACHN): > 100 µM (inactive)
GI50 (HCT-15): > 100 µM
GI50 (LXFL 529): > 100 µM (inactive)
GI50 (SF-539): > 100 µM (inactive)
GI50 (SNB-75): > 100 µM (inactive)
GI50 (NCI-H460): > 100 µM (inactive)
GI50 (OVCAR-8): > 100 µM (inactive)
GI50 (OVCAR-5): > 100 µM (inactive)
GI50 (DMS-273): > 100 µM (inactive)
GI50 (M14): > 100 µM (inactive)
GI50 (TK-10): > 100 µM (inactive)
GI50 (OVCAR-4): > 100 µM (inactive)
GI50 (HOP-18): > 100 µM (inactive)
GI50 (K562): > 100 µM (inactive)
GI50 (UACC-257): > 100 µM (inactive)

CCN(CC)CCOc1ccc(C(=C2CCCCC2)c2ccc(OCCN(CC)CC)cc2)cc1
GI50 (RPMI-8226): 0.7 µM (active)
GI50 (HOP-62): 1.77 µM (inactive)
GI50 (RXF 631): 1.46 µM (inactive)
GI50 (SK-MEL-2): 1.93 µM (inactive)
GI50 (HCC 2998): 1.3 µM (inactive)
GI50 (786-0): 1.39 µM (inactive)
GI50 (XF498): 1.07 µM (active)
GI50 (HCT-116): 1.25 µM (inactive)
GI50 (SK-OV-3): 1.87 µM (inactive)
GI50 (SK-MEL-28): 1.32 µM (inactive)
GI50 (A549): 1.62 µM (inactive)
GI50 (UO-31): 1.59 µM (inactive)
GI50 (SN12C): 1.66 µM (inactive)
GI50 (CAKI-1): 1.96 µM (inactive)
GI50 (MOLT-4): 0.612 µM (active)
GI50 (LOX IMVI): 1.23 µM (inactive)
GI50 (DLD-1): 1.93 µM (inactive)
GI50 (SF-295): 1.85 µM (inactive)
GI50 (NCI-H23): 1.86 µM (inactive)
GI50 (M19-MEL): 1.71 µM (inactive)
GI50 (IGROV-1): 1.71 µM (inactive)
GI50 (KM-20L2): 1.27 µM (inactive)
GI50 (HOP-92): 2.02 µM (inactive)
GI50 (SK-MEL-5): 1.58 µM (inactive)
GI50 (SF-268): 1.68 µM (inactive)
GI50 (NCI-H226): 2.15 µM (inactive)
GI50 (EKVX): 1.74 µM (inactive)
GI50 (SNB-19): 1.73 µM (inactive)
GI50 (HL-60): 0.299 µM (active)
GI50 (CCRF-CEM): 0.931 µM (active)
GI50 (HT-29): 1.1 µM (active)
GI50 (U-251): 1.64 µM (inactive)
GI50 (OVCAR-3): 1.72 µM (inactive)
GI50 (SW-620): 1.25 µM (inactive)
GI50 (KM12): 1.27 µM (inactive)
GI50 (A498): 1.78 µM (inactive)
GI50 (Malme-3M): 1.72 µM (inactive)
GI50 (ACHN): 1.75 µM (inactive)
GI50 (HCT-15): 1.54 µM
GI50 (LXFL 529): 1.69 µM (inactive)
GI50 (SF-539): 1.55 µM (inactive)
GI50 (SNB-75): 1.45 µM (inactive)
GI50 (NCI-H460): 1.47 µM (inactive)
GI50 (OVCAR-8): 1.73 µM (inactive)
GI50 (OVCAR-5): 1.79 µM (inactive)
GI50 (RXF 393): 1.59 µM (inactive)
GI50 (DMS-273): 1.52 µM (inactive)
GI50 (M14): 1.55 µM (inactive)
GI50 (TK-10): 1.5 µM (inactive)
GI50 (COLO 205): 1.34 µM (inactive)
GI50 (NCI-H522): 1.76 µM (inactive)
GI50 (OVCAR-4): 2.31 µM (inactive)
GI50 (HOP-18): 2.89 µM (inactive)
GI50 (K562): 0.267 µM (active)
GI50 (UACC-257): 1.87 µM (inactive)

Cc1cc(C(=C2C=CC(=[N+](C)C)C=C2)c2ccc([N+](C)(C)C)cc2)ccc1N(C)C
GI50 (UACC-62): 5.55 µM (inactive)
GI50 (RPMI-8226): 2.04 µM (inactive)
GI50 (HOP-62): 25.2 µM (inactive)
GI50 (RXF 631): 7.91 µM (inactive)
GI50 (SK-MEL-2): 15.2 µM (inactive)
GI50 (HCC 2998): 13.8 µM (inactive)
GI50 (786-0): 21.6 µM (inactive)
GI50 (XF498): 1.36 µM (inactive)
GI50 (HCT-116): 3.23 µM (inactive)
GI50 (SK-OV-3): 15.8 µM (inactive)
GI50 (SK-MEL-28): 11.3 µM (inactive)
GI50 (A549): 4.33 µM (inactive)
GI50 (SNB-78): 10.7 µM (inactive)
GI50 (UO-31): 26.3 µM (inactive)
GI50 (SN12C): 5.07 µM (inactive)
GI50 (CAKI-1): 18.2 µM (inactive)
GI50 (MOLT-4): 4.28 µM (inactive)
GI50 (DMS-114): 4.67 µM (inactive)
GI50 (LOX IMVI): 4.79 µM (inactive)
GI50 (DLD-1): 6.65 µM (inactive)
GI50 (SF-295): 5.2 µM (inactive)
GI50 (NCI-H23): 10.1 µM (inactive)
GI50 (M19-MEL): 5.52 µM (inactive)
GI50 (IGROV-1): 12.3 µM (inactive)
GI50 (KM-20L2): 5.48 µM (inactive)
GI50 (HOP-92): 10.9 µM (inactive)
GI50 (SK-MEL-5): 11.8 µM (inactive)
GI50 (SF-268): 11.6 µM (inactive)
GI50 (NCI-H226): 16 µM (inactive)
GI50 (EKVX): 4.32 µM (inactive)
GI50 (SNB-19): 24 µM (inactive)
GI50 (HL-60): 2.3 µM (inactive)
GI50 (CCRF-CEM): 2.48 µM (inactive)
GI50 (HT-29): 5.08 µM (inactive)
GI50 (U-251): 5.53 µM (inactive)
GI50 (OVCAR-3): 12 µM (inactive)
GI50 (SW-620): 5.31 µM (inactive)
GI50 (KM12): 4.66 µM (inactive)
GI50 (A498): 18.5 µM (inactive)
GI50 (SR): 1.62 µM (inactive)
GI50 (Malme-3M): 15.8 µM (inactive)
GI50 (ACHN): 10.7 µM (inactive)
GI50 (HCT-15): 33 µM
GI50 (LXFL 529): 6.98 µM (inactive)
GI50 (SF-539): 10.8 µM (inactive)
GI50 (SNB-75): 2.65 µM (inactive)
GI50 (NCI-H460): 3.98 µM (inactive)
GI50 (OVCAR-8): 5.08 µM (inactive)
GI50 (OVCAR-5): 21.9 µM (inactive)
GI50 (RXF 393): 5.65 µM (inactive)
GI50 (DMS-273): 5.01 µM (inactive)
GI50 (M14): 10.4 µM (inactive)
GI50 (TK-10): 1.57 µM (inactive)
GI50 (COLO 205): 10.1 µM (inactive)
GI50 (NCI-H522): 15.9 µM (inactive)
GI50 (OVCAR-4): 15.8 µM (inactive)
GI50 (K562): 2.07 µM (inactive)
GI50 (UACC-257): 12.1 µM (inactive)
